Read-outs that look alike come from different tables or passages of the source.
Test system: SARS-CoV-2 (USA-WA1/2020) in Calu-3 cells
Format: cell-based
[1] = high dose (10 µM), Calu-3, 48 h
[2] = low dose (100 nM), Calu-3, 48 h

Molecule: OCCn1cc(-c2cnc3nnn(Cc4ccc5ncccc5c4)c3n2)cn1 [PF-04217903]
- dsRNA signal, AU High [1]: 9610.7 AU
- dsRNA signal, AU Low [2]: 2049.9 AU

Molecule: O=c1oc2c(O)c(O)cc3c(=O)oc4c(O)c(O)cc1c4c23 [Ellagic acid]
- dsRNA signal, AU High [1]: 14274.7 AU
- dsRNA signal, AU Low [2]: 14007.9 AU

Molecule: O=C(/C=C/c1ccccc1)NC(NC(=S)Nc1ccc(Cl)cc1)C(Cl)(Cl)Cl (stereo not drawn) [Sal 003]
- dsRNA signal, AU High [1]: 58234.6 AU
- dsRNA signal, AU Low [2]: 61292.8 AU

Molecule: C[C@@H]1COCCN1c1cc(=O)n2c(n1)N(Cc1cncc(Cl)c1)[C@H](C(F)(F)F)CC2 [SAR405]
- dsRNA signal, AU High [1]: 1587.9 AU
- dsRNA signal, AU Low [2]: 23454.9 AU

Molecule: CCN(CC)CCCC(C)Nc1ccnc2cc(Cl)ccc12 (stereo not drawn) [Chloroquine diphosphate]
- dsRNA signal, AU High [1]: 4180.7 AU
- dsRNA signal, AU Low [2]: 1072.6 AU

Molecule: Cc1ccc(-c2c(C(=O)CF)n(CCCO)c3ncnc(N)c23)cc1 [FMK]
- dsRNA signal, AU High [1]: 36246.0 AU
- dsRNA signal, AU Low [2]: 14082.6 AU

Molecule: CC(=O)Nc1cccc(-n2c(=O)n(C3CC3)c(=O)c3c(Nc4ccc(I)cc4F)n(C)c(=O)c(C)c32)c1.C[S+](C)[O-] [Trametinib DMSO solvate]
- dsRNA signal, AU High: 10918.5
- dsRNA signal, AU Low: 24279.8

Molecule: O=C(O)C[C@H](O)C[C@H](O)/C=C/c1c(C2CC2)nc2ccccc2c1-c1ccc(F)cc1 [Pitavastatin]
- dsRNA signal, AU High [1]: 8150.8 AU
- dsRNA signal, AU Low [2]: 10215.5 AU

Molecule: COc1ccc2c(c1)c(C1=C(c3c[nH]c4ccccc34)C(=O)NC1=O)cn2CCCN(C)C [Go 6983]
- dsRNA signal, AU High [1]: 52923.0 AU
- dsRNA signal, AU Low [2]: 26190.1 AU

Molecule: Cl.Nc1cc(C(F)(F)F)c(-c2cc(N3CCOCC3)nc(N3CCOCC3)n2)cn1 [NVP-BKM120 Hydrochloride]
- dsRNA signal, AU High [1]: 0.0 AU
- dsRNA signal, AU Low [2]: 56514.5 AU

Molecule: C=CC(=O)Nc1cccc(Nc2nc(Nc3ccc(OCCOC)cc3)ncc2F)c1 [AVL-292]
- dsRNA signal, AU High [1]: 20034.7 AU
- dsRNA signal, AU Low [2]: 9433.9 AU

Molecule: Cc1cc(=O)[nH]c(=S)[nH]1 [Methylthiouracil]
- dsRNA signal, AU High [1]: 61524.3 AU
- dsRNA signal, AU Low [2]: 55636.1 AU

Molecule: O=C(NOC[C@H](O)CO)c1ccc(F)c(F)c1Nc1ccc(I)cc1F [PD0325901]
- dsRNA signal, AU High [1]: 5022.8 AU
- dsRNA signal, AU Low [2]: 48059.9 AU

Molecule: Cc1ccc(NC(=O)Nc2cc(C(F)(F)F)ccc2F)cc1Nc1ccc2c(c1)NC(=O)/C2=C\c1ccc[nH]1 [GNF-5837]
- dsRNA signal, AU High [1]: 2750.0 AU
- dsRNA signal, AU Low [2]: 23319.5 AU

Molecule: C[C@@H]1CC[C@H]2[C@@H](C)C(=O)O[C@@H]3O[C@@]4(C)CC[C@@H]1[C@]32OO4 [Artemisinine]
- dsRNA signal, AU High [1]: 2826.9 AU
- dsRNA signal, AU Low [2]: 35035.3 AU

Molecule: CCOc1cc2ncc(C#N)c(Nc3ccc(OCc4ccccn4)c(Cl)c3)c2cc1NC(=O)/C=C/CN(C)C [Neratinib (HKI-272)]
- dsRNA signal, AU High [1]: 1101.0 AU
- dsRNA signal, AU Low [2]: 11881.7 AU

Molecule: Nc1nc(N)c2nc(-c3cccc(O)c3)c(-c3cccc(O)c3)nc2n1 [TG100-115]
- dsRNA signal, AU High [1]: 401.6 AU
- dsRNA signal, AU Low [2]: 17405.4 AU

Molecule: Cc1ccccc1CN1C(=O)C2=C(CCN(Cc3ccccc3)C2)N2CCN=C12 [TIC10]
- dsRNA signal, AU High [1]: 0.0 AU
- dsRNA signal, AU Low [2]: 1481.6 AU

Molecule: COCc1c(-c2ccc(NC(=O)Nc3cc(C(F)(F)F)ccc3F)c(F)c2)c2c(N)ncnn2c1CN1CCOCC1 [ACTB-1003]
- dsRNA signal, AU High [1]: 28009.9 AU
- dsRNA signal, AU Low [2]: 9584.0 AU

Molecule: CC1(C)OC(=O)C=C[C@]2(C)[C@H]3CC[C@@]4(C)[C@H](c5ccoc5)OC(=O)[C@H]5O[C@]54[C@]3(C)C(=O)C[C@@H]12 [Obacunone]
- dsRNA signal, AU High [1]: 22534.9 AU
- dsRNA signal, AU Low [2]: 63087.7 AU

Molecule: O=C(Nc1nc2ccc(NC(=O)C34CC5CC(CC(C5)C3)C4)cc2s1)c1ccccc1 [NVP 231]
- dsRNA signal, AU High [1]: 1973.6 AU
- dsRNA signal, AU Low [2]: 14037.2 AU

Molecule: O=c1cc(-c2ccc(O)cc2)oc2cc(O)cc(O)c12 [Apigenin]
- dsRNA signal, AU High [1]: 1738.8 AU
- dsRNA signal, AU Low [2]: 15810.5 AU

Molecule: CS(=O)(=O)N1CCN(Cc2cc3nc(-c4cccc5[nH]ncc45)nc(N4CCOCC4)c3s2)CC1.CS(=O)(=O)O.CS(=O)(=O)O [GDC-0941 dimethanesulfonate]
- dsRNA signal, AU High [1]: 20950.7 AU
- dsRNA signal, AU Low [2]: 35251.8 AU

Molecule: CHIR-98014
- dsRNA signal, AU High: 63043.9
- dsRNA signal, AU Low: 37241.6

Molecule: Nc1nc(Nc2ccc(S(N)(=O)=O)cc2)nn1C(=O)c1c(F)cccc1F [JNJ-7706621]
- dsRNA signal, AU High [1]: 0.0 AU
- dsRNA signal, AU Low [2]: 4378.3 AU

Molecule: Cc1noc(C)c1-c1ccc(-c2cc(C(N)=O)c(NC(N)=O)s2)c(O[C@H]2CCNC2)c1 [AZD3264]
- dsRNA signal, AU High [1]: 223.2 AU
- dsRNA signal, AU Low [2]: 47155.4 AU

Molecule: Cn1cc(-c2ccc3c(c2)CCN3C(=O)Cc2cccc(C(F)(F)F)c2)c2c(N)ncnc21 [GSK2606414]
- dsRNA signal, AU High [1]: 6871.8 AU
- dsRNA signal, AU Low [2]: 28375.6 AU

Molecule: CCCCCCCCCCCCCCCCOP(=O)([O-])OCC[N+](C)(C)C [Miltefosine]
- dsRNA signal, AU High [1]: 27276.6 AU
- dsRNA signal, AU Low [2]: 36330.6 AU

Molecule: Nc1[nH]nc2nnc(-c3c(-c4ccccc4)nn4ccccc34)cc12 [FR 180204]
- dsRNA signal, AU High [1]: 10806.0 AU
- dsRNA signal, AU Low [2]: 12597.7 AU

Molecule: Nc1cccc(-c2cc3c(Oc4cccc(O)c4)ncnc3[nH]2)c1 [TWS119]
- dsRNA signal, AU High [1]: 48959.2 AU
- dsRNA signal, AU Low [2]: 29417.1 AU

Molecule: COc1cc(-c2cc(-c3ccc(N4CCNCC4)cc3)cnc2C)cc(OC)c1OC [LDN-214117]
- dsRNA signal, AU High [1]: 4693.4 AU
- dsRNA signal, AU Low [2]: 28899.6 AU

Molecule: Cc1[nH]c(/C=C2\C(=O)Nc3ccccc32)c(C)c1CCC(=O)O [TSU-68 (SU6668,Orantinib)]
- dsRNA signal, AU High [1]: 4841.4 AU
- dsRNA signal, AU Low [2]: 21696.8 AU

Molecule: Cn1cc(-c2ccc3ncc(Cc4ccc5ncccc5c4)n3n2)cn1 [NVP-BVU972]
- dsRNA signal, AU High [1]: 9035.4 AU
- dsRNA signal, AU Low [2]: 52705.1 AU

Molecule: Cc1cccc(-c2[nH]c(CNc3ccccc3F)nc2-c2ccc3ncnn3c2)n1 [EW-7197]
- dsRNA signal, AU High [1]: 168.7 AU
- dsRNA signal, AU Low [2]: 7205.0 AU

Molecule: CCn1c(N)c(C(=O)NC)c(=O)c2ccc(C#C[C@@](C)(O)COC)nc21 [SAR131675]
- dsRNA signal, AU High [1]: 44218.5 AU
- dsRNA signal, AU Low [2]: 34484.3 AU

Molecule: CO[C@H]1C[C@@H]2CC[C@@H](C)[C@@](O)(O2)C(=O)C(=O)N2CCCC[C@H]2C(=O)O[C@H]([C@H](C)C[C@@H]2CC[C@H](n3cnnn3)[C@H](OC)C2)CC(=O)[C@H](C)/C=C(\C)[C@@H](O)[C@@H](OC)C(=O)[C@H](C)C[C@H](C)/C=C/C=C/C=C/1C [Zotarolimus(ABT-578)]
- dsRNA signal, AU High [1]: 11435.6 AU
- dsRNA signal, AU Low [2]: 1864.8 AU

Molecule: Cc1cnc(-c2cnc(NCCNc3ccc(C#N)cn3)nc2-c2ccc(Cl)cc2Cl)[nH]1 [CHIR-99021 (CT99021)]
- dsRNA signal, AU High [1]: 62333.9 AU
- dsRNA signal, AU Low [2]: 10204.7 AU

Molecule: c1cn2cc(-c3ccc4cn[nH]c4c3)nc(Nc3ccc(N4CCOCC4)cc3)c2n1 [GS-9973]
- dsRNA signal, AU High [1]: 32878.5 AU
- dsRNA signal, AU Low [2]: 51541.3 AU

Molecule: C=CC(=O)Nc1cc(-n2c(=O)ccc3cnc4ccc(-c5ccc(NS(C)(=O)=O)cc5)cc4c32)ccc1C [BMX-IN-1]
- dsRNA signal, AU High [1]: 37737.5 AU
- dsRNA signal, AU Low [2]: 26747.2 AU

Molecule: CC(C)(C)c1nc(-c2cccc(NS(=O)(=O)c3c(F)cccc3F)c2F)c(-c2ccnc(N)n2)s1.CS(=O)(=O)O [Dabrafenib Mesylate (GSK-2118436)]
- dsRNA signal, AU High [1]: 27414.0 AU
- dsRNA signal, AU Low [2]: 0.0 AU

Molecule: CCCCOc1cc(C(=O)NCCN(CC)CC)c2ccccc2n1.Cl [Dibucaine (Cinchocaine) HCl]
- dsRNA signal, AU High [1]: 9319.1 AU
- dsRNA signal, AU Low [2]: 11778.5 AU

Molecule: SC 79
- dsRNA signal, AU High [1]: 17618.8 AU
- dsRNA signal, AU Low [2]: 5138.7 AU

Molecule: CCc1ccc(C(=O)COc2ccc(CC3SC(=O)NC3=O)cc2)nc1 (stereo not drawn) [MSDC-0160]
- dsRNA signal, AU High [1]: 16528.8 AU
- dsRNA signal, AU Low [2]: 15455.5 AU

Molecule: O=C(O)c1ccc(Nc2ncc3c(n2)-c2ccc(Cl)cc2C(c2c(F)cccc2F)=NC3)cc1 [MLN8054]
- dsRNA signal, AU High [1]: 4632.4 AU
- dsRNA signal, AU Low [2]: 9929.7 AU

Molecule: Cc1c(NC(=O)c2ccc(C(C)(C)C)cc2)cccc1-c1cn(C)c(=O)c(Nc2ccc(C(=O)N3CCOCC3)cc2)n1 [CGI-1746]
- dsRNA signal, AU High [1]: 34116.6 AU
- dsRNA signal, AU Low [2]: 18368.1 AU

Molecule: COc1ccc(C(=O)Nc2sc3c(c2C(N)=O)CCCC3)cc1OC [TCS 359]
- dsRNA signal, AU High [1]: 5896.0 AU
- dsRNA signal, AU Low [2]: 63380.8 AU

Molecule: COc1ccc2cc(-c3nc(-c4ccc([S+](C)[O-])cc4)[nH]c3-c3ccncc3)ccc2c1 (stereo not drawn) [Tie2 kinase inhibitor]
- dsRNA signal, AU High [1]: 4787.9 AU
- dsRNA signal, AU Low [2]: 16594.7 AU

Molecule: Nc1ncnc2n[nH]c(Nc3ccc(F)cc3)c12 [CGP 57380]
- dsRNA signal, AU High [1]: 1947.6 AU
- dsRNA signal, AU Low [2]: 33084.2 AU
